Source: ChEMBL document CHEMBL1137686, “Synthesis and anticonvulsant activity of new N-[(4-arylpiperazin-1-yl)-alkyl] derivatives of 3-phenyl-pyrrolidine-2,5-dione” (Eur J Med Chem, 2009)
The source made the active and inactive calls. No cut-off for these calls is given here.

What was measured:
[1] = test system: Mus musculus; experiment: Anticonvulsant activity in ip dosed mouse assessed as inhibition of maximal electroshock-induced seizures; format: functional
[2] = test system: Mus musculus; experiment: Neurotoxicity in CF1 albino mouse assessed as occurance of tremors at 300 mg/kg, ip after 4 hrs by rotarod test; format: toxicity, organism-based; parameters: dose 300 mg/kg, route intraperitoneal; conditions: in vivo
[3] = test system: Mus musculus; experiment: Anticonvulsant activity in ip dosed CF1 albino mouse assessed as inhibition of maximal electroshock-induced seizures after 0.5 hrs; format: functional
[4] = test system: Mus musculus; experiment: Anticonvulsant activity in ip dosed CF1 albino mouse assessed as inhibition of maximal electroshock-induced seizures after 4 hrs; format: functional
[5] = test system: Mus musculus; experiment: Neurotoxicity in ip dosed CF1 albino mouse assessed as ability to maintain equilibrium for 1 min on […] after 4 hrs by rotarod test; format: toxicity, organism-based; conditions: in vivo
[6] = test system: Mus musculus; experiment: Neurotoxicity in ip dosed CF1 albino mouse assessed as ability to maintain equilibrium for 1 min on […] after 0.5 hrs by rotarod test; format: toxicity, organism-based; conditions: in vivo
[7] = test system: Mus musculus; experiment: Anticonvulsant activity in CF1 albino mouse assessed as inhibition of subcutaneous pentylenetetrazole-induced seizures at 100 mg/kg, ip after 4 hrs; format: functional, organism-based; parameters: dose 100 mg/kg
[8] = test system: Mus musculus; experiment: Anticonvulsant activity in CF1 albino mouse assessed as inhibition of subcutaneous pentylenetetrazole-induced seizures at 300 mg/kg, ip after 4 hrs; format: functional, organism-based; parameters: dose 300 mg/kg
[9] = test system: Mus musculus; experiment: Toxicity in CF1 albino mouse assessed as myoclonic jerks at 100 mg/kg, ip after 4 hrs; format: organism-based; parameters: dose 100 mg/kg, route intraperitoneal; conditions: in vivo
[10] = test system: Mus musculus; experiment: Toxicity in CF1 albino mouse assessed as myoclonic jerks at 300 mg/kg, ip after 4 hrs; format: organism-based; parameters: dose 300 mg/kg, route intraperitoneal; conditions: in vivo
[11] = test system: Mus musculus; experiment: Anticonvulsant activity in CF1 albino mouse assessed as inhibition of maximal electroshock-induced seizures at 300 mg/kg, ip after 0.5 hrs; format: functional, organism-based; parameters: dose 300 mg/kg
[12] = test system: Mus musculus; experiment: Anticonvulsant activity in CF1 albino mouse assessed as inhibition of maximal electroshock-induced seizures at 300 mg/kg, ip after 4 hrs; format: functional, organism-based; parameters: dose 300 mg/kg
[13] = test system: Mus musculus; experiment: Neurotoxicity in CF1 albino mouse assessed as ability to maintain equilibrium for 1 min on […] at 300 mg/kg, ip after 4 hrs by rotarod test; format: toxicity, organism-based; parameters: dose 300 mg/kg, route intraperitoneal; conditions: in vivo
[14] = test system: Mus musculus; experiment: Neurotoxicity in CF1 albino mouse assessed as ability to grasp rotarod at 300 mg/kg, ip after 0.5 hrs by rotarod test; format: toxicity, organism-based; parameters: dose 300 mg/kg, route intraperitoneal; conditions: in vivo
[15] = test system: Mus musculus; experiment: Neurotoxicity in CF1 albino mouse assessed as muscle spasm at 300 mg/kg, po after 0.5 hrs by rotarod test; format: toxicity, organism-based, Muscle tissue; parameters: dose 300 mg/kg, route oral; conditions: in vivo
[16] = test system: Mus musculus; experiment: Anticonvulsant activity in CF1 albino mouse assessed as protection against maximal electroshock-induced seizures at 30 mg/kg, po after 1 hr; format: functional
[17] = test system: Mus musculus; experiment: Anticonvulsant activity in CF1 albino mouse assessed as protection against maximal electroshock-induced seizures at 30 mg/kg, po after 2 hrs; format: functional
[18] = test system: Mus musculus; experiment: Anticonvulsant activity in CF1 albino mouse assessed as protection against maximal electroshock-induced seizures at 30 mg/kg, po after 4 hrs; format: functional
[19] = test system: Mus musculus; experiment: Neurotoxicity in CF1 albino mouse assessed as motor impairment at 30 mg/kg, po after 0.25 hrs by rotarod test; format: toxicity, organism-based; parameters: dose 30 mg/kg, route oral; conditions: in vivo
[20] = test system: Mus musculus; experiment: Neurotoxicity in CF1 albino mouse assessed as motor impairment at 30 mg/kg, po after 0.5 hrs by rotarod test; format: toxicity, organism-based; parameters: dose 30 mg/kg, route oral; conditions: in vivo
[21] = test system: Mus musculus; experiment: Neurotoxicity in CF1 albino mouse assessed as motor impairment at 30 mg/kg, po after 1 hr by rotarod test; format: toxicity, organism-based; parameters: dose 30 mg/kg, route oral; conditions: in vivo
[22] = test system: Mus musculus; experiment: Neurotoxicity in CF1 albino mouse assessed as motor impairment at 30 mg/kg, po after 2 hrs by rotarod test; format: toxicity, organism-based; parameters: dose 30 mg/kg, route oral; conditions: in vivo
[23] = test system: Mus musculus; experiment: Neurotoxicity in CF1 albino mouse assessed as motor impairment at 30 mg/kg, po after 4 hrs by rotarod test; format: toxicity, organism-based; parameters: dose 30 mg/kg, route oral; conditions: in vivo
[24] = test system: Mus musculus; experiment: Anticonvulsant activity in CF1 albino mouse assessed as protection against maximal electroshock-induced seizures at 30 mg/kg, ip after 0.25 hrs; format: functional
[25] = test system: Mus musculus; experiment: Anticonvulsant activity in CF1 albino mouse assessed as protection against maximal electroshock-induced seizures at 30 mg/kg, ip after 0.5 hrs; format: functional
[26] = test system: Mus musculus; experiment: Anticonvulsant activity in CF1 albino mouse assessed as protection against maximal electroshock-induced seizures at 30 mg/kg, ip after 1 hr; format: functional
[27] = test system: Mus musculus; experiment: Anticonvulsant activity in CF1 albino mouse assessed as protection against maximal electroshock-induced seizures at 30 mg/kg, ip after 2 hrs; format: functional
[28] = test system: Mus musculus; experiment: Anticonvulsant activity in CF1 albino mouse assessed as protection against maximal electroshock-induced seizures at 30 mg/kg, ip after 4 hrs; format: functional
[29] = test system: Mus musculus; experiment: Neurotoxicity in CF1 albino mouse assessed as motor impairment at 30 mg/kg, ip after 0.25 hrs by rotarod test; format: toxicity, organism-based; parameters: dose 30 mg/kg, route intraperitoneal; conditions: in vivo
[30] = test system: Mus musculus; experiment: Neurotoxicity in CF1 albino mouse assessed as motor impairment at 30 mg/kg, ip after 0.5 hrs by rotarod test; format: toxicity, organism-based; parameters: dose 30 mg/kg, route intraperitoneal; conditions: in vivo
[31] = test system: Mus musculus; experiment: Neurotoxicity in CF1 albino mouse assessed as motor impairment at 30 mg/kg, ip after 4 hrs by rotarod test; format: toxicity, organism-based; parameters: dose 30 mg/kg, route intraperitoneal; conditions: in vivo
[32] = test system: Mus musculus; experiment: Neurotoxicity in CF1 albino mouse assessed as death at 300 mg/kg, ip after 0.5 hrs by rotarod test; format: toxicity, organism-based; parameters: dose 300 mg/kg, route intraperitoneal; conditions: in vivo
[33] = test system: Mus musculus; experiment: Neurotoxicity in CF1 albino mouse assessed as occurance of tremors at 300 mg/kg, ip after 0.5 hrs by rotarod test; format: toxicity, organism-based; parameters: dose 300 mg/kg, route intraperitoneal; conditions: in vivo
[34] = test system: Mus musculus; experiment: Anticonvulsant activity in CF1 albino mouse assessed as protection against maximal electroshock-induced seizures at 30 mg/kg, po after 0.25 hrs; format: functional
[35] = test system: Mus musculus; experiment: Anticonvulsant activity in CF1 albino mouse assessed as protection against maximal electroshock-induced seizures at 30 mg/kg, po after 0.5 hrs; format: functional
[36] = test system: Mus musculus; experiment: Neurotoxicity in CF1 albino mouse assessed as motor impairment at 30 mg/kg, ip after 1 hr by rotarod test; format: toxicity, organism-based; parameters: dose 30 mg/kg, route intraperitoneal; conditions: in vivo
[37] = test system: Mus musculus; experiment: Neurotoxicity in CF1 albino mouse assessed as motor impairment at 30 mg/kg, ip after 2 hrs by rotarod test; format: toxicity, organism-based; parameters: dose 30 mg/kg, route intraperitoneal; conditions: in vivo
[38] = test system: Mus musculus; experiment: Neurotoxicity in CF1 albino mouse assessed as ability to maintain equilibrium for 1 min on […] at 300 mg/kg, ip after 0.5 hrs by rotarod test; format: toxicity, organism-based; parameters: dose 300 mg/kg, route intraperitoneal; conditions: in vivo
[39] = test system: Mus musculus; experiment: Anticonvulsant activity against maximal electroshock-induced seizures in ip dosed CF1 albino mouse assessed as time to peak effect; format: functional
[40] = test system: Mus musculus; experiment: Anticonvulsant activity in ip dosed CF1 albino mouse assessed as inhibition of maximal electroshock-induced seizures; format: functional
[41] = test system: Mus musculus; experiment: Anticonvulsant activity in ip dosed CF1 albino mouse assessed as inhibition of subcutaneous pentylenetetrazole-induced seizures; format: functional
[42] = Neurotoxicity in ip dosed CF1 albino mouse assessed as ability to maintain equilibrium for 1 min on […] by rotarod test; format: toxicity, organism-based; conditions: in vivo
[43] = species on record: Mus musculus; experiment: Protective index, ratio of TD50 for neurotoxicity in CF1 albino mouse to ED50 for inhibition of maximal electroshock-induced seizures in CF1 albino mouse; format: functional
[44] = test system: Rattus norvegicus; experiment: Anticonvulsant activity against maximal electroshock-induced seizures in po dosed rat assessed as time to peak effect; format: functional
[45] = test system: Rattus norvegicus; experiment: Anticonvulsant activity in po dosed rat assessed as inhibition of subcutaneous pentylenetetrazole-induced seizures; format: functional
[46] = Neurotoxicity in po dosed rat assessed as ability to maintain equilibrium for 1 min on […] by rotarod test; format: toxicity, organism-based; conditions: in vivo
[47] = species on record: Rattus norvegicus; experiment: Protective index, ratio of TD50 for neurotoxicity in rat to ED50 for inhibition of maximal electroshock-induced seizures in rat; format: functional

Cc1cccc(N2CCN(CCCN3C(=O)CC(c4ccccc4Cl)C3=O)CC2)c1 (stereo not given)
Activity [1]: 120 mg/kg

COc1ccccc1N1CCN(CN2C(=O)CC(c3ccccc3C(F)(F)F)C2=O)CC1 (stereo not given)
Activity [2]: Toxic
Activity [3]: 300 mg/kg
Activity [4]: 300 mg/kg
Activity [5]: 100 mg/kg
Activity [6]: 100 mg/kg
Activity [7]: Active
Activity [8]: Active
Activity [9]: Toxic
Activity [10]: Toxic

COc1ccccc1N1CCN(CCN2C(=O)CC(c3ccccc3C(F)(F)F)C2=O)CC1 (stereo not given)
Activity [11]: inactive
Activity [12]: inactive
Activity [6]: 300 mg/kg
Activity [13]: Non-toxic
Activity [14]: Toxic
Activity [15]: Toxic

Cc1ccccc1C1CC(=O)N(CN2CCN(c3cccc(C(F)(F)F)c3)CC2)C1=O (stereo not given)
Activity [16]: 50%
Activity [17]: 25%
Activity [18]: 50%
Activity [19]: 50%
Activity [20]: 25%
Activity [21]: Non-toxic
Activity [22]: Non-toxic
Activity [23]: Non-toxic
Activity ([24]; route intraperitoneal): 50%
Activity ([25]; route intraperitoneal): 50%
Activity ([26]; route intraperitoneal): 100%
Activity ([27]; route intraperitoneal): 50%
Activity ([28]; route intraperitoneal): 50%
Activity [29]: Toxic
Activity [30]: Toxic
Activity [31]: Non-toxic
Activity [3]: 30 mg/kg
Activity [4]: 30 mg/kg
Activity [6]: 300 mg/kg
Activity [13]: Non-toxic
Activity [14]: Toxic
Activity [32]: Toxic
Activity [33]: Toxic
Activity [34]: inactive
Activity [35]: inactive

Cc1ccccc1C1CC(=O)N(CCN2CCN(c3cccc(Cl)c3)CC2)C1=O (stereo not given)
Activity [16]: 25%
Activity [17]: inactive
Activity [18]: 50%
Activity [19]: Non-toxic
Activity [20]: Non-toxic
Activity [21]: Non-toxic
Activity [22]: Non-toxic
Activity [23]: Non-toxic
Activity [24]: inactive
Activity [25]: inactive
Activity [26]: inactive
Activity [27]: inactive
Activity [28]: inactive
Activity [29]: Non-toxic
Activity [30]: Non-toxic
Activity [36]: Non-toxic
Activity [37]: Non-toxic
Activity [31]: Non-toxic
Activity [4]: 100 mg/kg
Activity [11]: inactive
Activity [38]: Non-toxic
Activity [13]: Non-toxic
Activity [34]: inactive
Activity [35]: inactive

O=C1CC2(CCc3ccccc3C2)C(=O)N1CCCN1CCN(c2cccc(C(F)(F)F)c2)CC1 (stereo not given)
ED50 ([1]; Mus musculus, ip): 23 mg/kg

O=C1NC(=O)C(c2ccccc2)(c2ccccc2)N1 [PHENYTOIN]
Time [39]: 1 h
ED50 [40]: 5.32 mg/kg
ED50 [41]: > 500 mg/kg
TD50 at 1 min [42]: 41.2 mg/kg
Ratio TD50/ED50 [43]: 6.52
Time [44]: 2 h
ED50 [45]: > 500 mg/kg
TD50 at 1 min [46]: > 500 mg/kg
Ratio TD50/ED50 [47]: >21.6
Activity [3]: 30 mg/kg
Activity [4]: 30 mg/kg
Activity [5]: 100 mg/kg
Activity [6]: 100 mg/kg
Activity [35]: Active
